The assay has as its target RIPK1 (recombinant GST-RIPK1 kinase domain, residues 1-327) (Homo sapiens (Human), UniProt Q13546). The experiment in a line: RIPK1-ADP-Glo Enzymatic Assay. The format is biochemical. Conditions: ADP-Glo; 25 nM GST-RIPK1, 300 μM ATP; assay lower limit ~25 nM; read-out: RIPK1 V0 Ec50. The method in brief:
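Enzyme from baculovirus-infected Sf21 cells, 25 nM final, was pre-incubated 30 min at ambient temperature with compound (ten-point, 1:3 dilution from 100000 nM, 1% DMSO), then reacted 150 min with 300 μM ATP and 3 μM dephosphorylated MBP. ADP was read by luminescence; EC50 from four-parameter fit.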
On the technique in general: ADP-Glo turns the ADP formed in a reaction into a luminescent signal.

Counter-ions that a name gives are not always drawn.

RIPK1 (recombinant GST-RIPK1 kinase domain, residues 1-327), sequence (Q13546 1-327): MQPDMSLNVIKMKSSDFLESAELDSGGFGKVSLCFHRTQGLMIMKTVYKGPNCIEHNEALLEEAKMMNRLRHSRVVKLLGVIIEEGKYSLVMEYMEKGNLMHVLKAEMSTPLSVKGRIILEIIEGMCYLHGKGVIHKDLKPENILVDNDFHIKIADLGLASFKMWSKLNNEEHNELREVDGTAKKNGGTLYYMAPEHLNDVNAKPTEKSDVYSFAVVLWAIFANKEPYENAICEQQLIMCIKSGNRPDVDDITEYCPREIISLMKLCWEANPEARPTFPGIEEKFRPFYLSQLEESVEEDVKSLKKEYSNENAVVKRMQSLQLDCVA

What is called EC50 is the midpoint of the concentration-response curve. Turning to `O=C(c1ccccc1)N1CCC2(O[C@@H]3CC[C@@H](c4ccccc4)N3C2=O)C(F)C1` (single isomer, unassigned) [Example 2.3, (3[S or R],4[R or S], 5′S,7a′R)-1-benzoyl-3-fluoro-5′-phenyltetrahydro-3′H-spiro[piperidine-4,2′-pyrrolo[2,1-b]oxazol]-3′-one], the EC50 is less than 25 nM.
Turning to `N#Cc1ccc(N2CCC3(CC2)O[C@@H]2CC[C@@H](c4cccc(F)c4)N2C3=O)n2nccc12` [Example 4.157, 7-[(5′S,7a′R)-5′-(3-fluorophenyl)-3′-oxotetrahydro-1H,3′H-spiro[piperidine-4,2′-pyrrolo[2,1-b] [1,3]oxazol]-1-yl]pyrazolo[1,5-a] pyridine-4-carbonitrile], the EC50 was less than 25 nM.
Regarding `N#Cc1ccc(N2CCC3(CC2)S[C@@H]2CC[C@@H](c4ccccc4)N2C3=O)n2nccc12` [Example 4.145, 7-[(5′S,7a′R)-3′-oxo-5′-phenyltetrahydro-1H,3′H-spiro[piperidine-4,2′-pyrrolo[2,1-b] [1,3]thiazol]-1-yl]pyrazolo[1,5-a] pyridine-4-carbonitrile], the EC50 is less than 25 nM.
On to `O=C(c1cc(C(F)(F)F)cnn1)N1CCC2(CC1)O[C@@H]1CC[C@@H](c3cc(F)cc(F)c3)N1C2=O` [Example 6.34, (5′S,7a′R)-5′-(3,5-difluorophenyl)-1-[5-(trifluoromethyl)pyrid-azine-3-carbonyl] tetrahydro-3′H-spiro [piperidine-4,2′-pyrrolo[2,1-b][1,3]oxazol]-3′-one], for which the EC50 stood at 550 nM.
The result for `O=C(c1cccc(C23CC(C2)C3)n1)N1CCC2(CC1)O[C@@H]1CC[C@@H](c3cc(F)cc(F)c3)N1C2=O` [Example 6.137, (5′S,7a′R)-1-[6-(bicyclo[1.1.1]pentan-1-yl)pyridine-2-car-bonyl]-5-(3,5-difluoro-phenyl)tetrahydro-3′H-spiro[piperidine-4,2′-pyrrolo[2,1-b] [1,3]oxazol]-3′-one] reads 78.7 nM.
For `O=C1N2[C@@H](CC[C@H]2c2ccccc2)OC12CN(c1ccc(C3CCC3)c3ccnn13)C2` [Example 18.3, (5′S,7a′R)-1-(4-cyclobutylpyrazolo[1,5-a]pyridin-7-yl)-5′-phenyltetrahydro-3′H-spiro[azetidine-3,2′-pyrrolo[2,1-b][1,3]oxazol]-3′-one], the EC50 was less than 25 nM.
With `O=C1N2[C@@H](CC[C@H]2c2cccc(F)c2)OC12CCN(c1ncnc3ccnn13)CC2` [Example 4.204, (5′S,7a′R)-5′-(3-fluorophenyl)-1-(pyrazolo[1,5-a] [1,3,5]triazin-4-yl)tetrahydro-3′H-spiro[piperidine-4,2′-pyrrolo[2,1-b] [1,3]oxazol]-3′-one], the EC50 was less than 25 nM.
For the molecule `O=C(c1cccc(C2CC2)c1)N1CCC2(CC1)O[C@@H]1CC[C@@H](c3cccc(F)c3)N1C2=O` [Example 6.118, (5′S,7a′R)-1-(3-cyclopropylbenzene-1-carbonyl)-5′-(3-fluorophenyl)tetra-hydro-3′H-spiro [piperidine-4,2′-pyrrolo[2,1-b][1,3]oxazol]-3′-one], the EC50 was less than 25 nM.
For the molecule `Cc1cnn(-c2cc(N3CCC4(CC3)O[C@@H]3CC[C@@H](c5ccccc5)N3C4=O)ncn2)c1` [Example 4.176, (5′S,7a′R)-1-[6-(4-methyl-1H-pyrazol-1-yl)pyrimidin-4-yl]-5′-phenyltetrahydro-3′H-spiro[piperidine-4,2′-pyrrolo[2,1-b] [1,3]oxazol]-3′-one], the EC50 is 48.8 nM.
Take `CC(C)(O)C#Cc1ccc(C(=O)N2CCC3(CC2)O[C@@H]2CC[C@@H](c4cc(F)cc(F)c4)N2C3=O)cc1` [Example 5.26, (5′S,7a′R)-5′-(3,5-difluoro-phenyl)-1-(4-(3-hydroxy-3-methylbut-1-yn-1-yl)-benzoyl)tetrahydro-3′H-spiro[piperidine-4,2′-pyrrolo[2,1-b]oxazol]-3′-one]: the EC50 was found to be 737 nM.
The result for `O=C1N2[C@@H](CC[C@H]2c2cnccn2)OC12CCN(c1ccnc3c(F)cnn13)CC2` [Example 4.143, (5′S,7a′R)-1-(3-fluoropyrazolo[1,5-a]pyrimidin-7-yl)-5′-(pyrazin-2-yl)tetrahydro-3′H-spiro[piperidine-4,2′-pyrrolo[2,1-b] [1,3]oxazol]-3′-one] reads less than 25 nM; that for `O=C(c1ccccc1)N1CCC2(O[C@@H]3CC[C@@H](c4ccccc4)N3C2=O)C(F)C1` (single isomer, unassigned) [Example 2.2, (3[R or S],4[S or R], 5′S,7a′R)-1-benzoyl-3-fluoro-5′-phenyltetrahydro-3′H-spiro[piperidine-4,2′-pyrrolo[2,1-b]oxazol]-3′-one], less than 25 nM.
In the case of `O=C1N2[C@@H](CC[C@H]2c2cc(F)ccc2F)OC12CCN(c1ccnc3ccnn13)CC2` [Example 4.114, (5′S,7a′R)-5′-(2,5-difluorophenyl)-1-(pyrazolo[1,5-a]pyrimidin-7-yl)tetrahydro-3′H-spiro[piperidine-4,2′-pyrrolo[2,1-b] [1,3]oxazol]-3′-one], the EC50 is less than 25 nM.
With `O=C(c1ccnc(C(F)(F)F)c1F)N1CCC2(CC1)O[C@@H]1CC[C@@H](c3cc(F)cc(F)c3)N1C2=O` [Example 6.74, (5′S,7a′R)-5′-(3,5-difluorophenyl)-1-[3-fluoro-2-(trifluoro-methyl)pyridine-4-carbonyl]tetrahydro-3′H-spiro[piperidine-4,2′-pyrrolo[2,1-b] [1,3]oxazol]-3′-one], the EC50 is 31.9 nM.
`Cc1ccccc1[C@@H]1CC[C@H]2OC3(CCN(c4ccnc5c(F)cnn45)CC3)C(=O)N21` [Example 4.255, (5′S,7a′R)-1-(3-fluoropyrazolo[1,5-a]pyrimidin-7-yl)-5′-(2-methylphenyl)tetrahydro-3′H-spiro[piperidine-4,2′-pyrrolo[2,1-b] [1,3]oxazol]-3′-one]: the EC50 was 40.3 nM.
Regarding `O=C(c1nnn2ccccc12)N1CCC2(CC1)O[C@@H]1CC[C@@H](c3cc(F)cc(F)c3)N1C2=O` [Example 5.66, (5′S,7a′R)-1-([1,2,3]-triazolo-[1,5-a]pyridine-3-carbonyl)-5′-(3,5-difluoro-phenyl)tetrahydro-3′H-spiro[piperidine-4,2′-pyrrolo[2,1-b]oxazol]-3′-one], the EC50 came to 81.1 nM.
Take `Cc1nc2sccn2c1C(=O)N1CCC2(CC1)O[C@@H]1CC[C@@H](c3cc(F)cc(F)c3)N1C2=O` [Example 6.43, (5′S,7a′R)-5′-(3,5-difluorophenyl)-1-(6-methylimidazo[2,1-b][1,3]thiazole-5-carbonyl)tetrahydro-3′H-spiro[piperidine-4,2′-pyrrolo[2,1-b] [1,3]oxazol]-3′-one]: the EC50 is 151 nM.
As for `Cc1ccccc1S(=O)(=O)N1CCC2(CC1)O[C@@H]1CC[C@@H](c3cc(F)cc(F)c3)N1C2=O` [Example 8.2, (5′S,7a′R)-5′-(3,5-difluorophenyl)-1-[(2-methylphenyl)sulfonyl] tetrahydro-3′H-spiro[piperidine-4,2′-pyrrolo[2,1-b][1,3]oxazol]-3′-one], the EC50 amounted to 685 nM.
Take `COc1cccc([C@@H]2CC[C@H]3OC4(CCN(c5cc(C#N)ncn5)CC4)C(=O)N32)c1` [Example 20.3, 6-[(5′S,7a′R)-5′-(3-methoxyphenyl)-3′-oxotetrahydro-1H,3′H-spiro[piperidine-4,2′-pyrrolo[2,1-b][1,3]oxazol]-1-yl]pyrimidine-4-carbonitrile]: the EC50 came to 394 nM.
For the molecule `N#Cc1ccc(N2CCC3(O[C@@H]4CC[C@@H](c5ccccc5)N4C3=O)C(F)C2)n2ncnc12` (stereo partly drawn) [Example 4.257, 5-[(5′S,7a′R)-3-fluoro-3′-oxo-5′-phenyltetrahydro-1H,3′H-spiro[piperidine-4,2′-pyrrolo[2,1-b] [1,3]oxazol]-1-yl][1,2,4]triazolo[1,5-a] pyridine-8-carbonitrile], the EC50 is less than 25 nM.
For the molecule `O=C1N2[C@@H](CC[C@H]2c2cc(F)cc(F)c2)OC12CCN(c1ccc(OCC(F)F)c3ccnn13)CC2` [Example 19.4, (5′S,7a′R)-1-(4-(2,2-difluoroethoxy)pyrazolo [1,5-a]pyridin-7-yl)-5′-(3,5-difluorophenyl)tetrahydro-3′H-spiro[piperidine-4,2′-pyrrolo[2,1-b]oxazol]-3′-one, TFA salt], the EC50 is 32 nM.
For the molecule `O=C1N2[C@@H](CC[C@H]2c2cc(F)cc(F)c2)OC12CCN(c1ccc(Br)c3ccnn13)CC2` [Example 13.6, (5′S,7a′R)-1-(4-bromopyrazolo[1,5-a]pyridin-7-yl)-5′-(3,5-difluorophenyl)tetrahydro-3′H-spiro[piperidine-4,2′-pyrrolo[2,1-b]oxazol]-3′-one, TFA salt], the EC50 is less than 25 nM.
With `O=C1N2[C@@H](CC[C@H]2c2cc(F)cc(F)c2)OC12CCN(c1ncc(F)cn1)CC2` [Example 4.67, (5′S,7a′R)-5′-(3,5-difluorophenyl)-1-(5-fluoropyrimidin-2-yl)tetrahydro-3′H-spiro[piperidine-4,2′-pyrrolo[2,1-b] [1,3]oxazol]-3′-one], the EC50 amounted to 89.2 nM.
For the molecule `O=C1N2[C@@H](CC[C@H]2c2cc(F)cc(F)c2)OC12CCN(c1ncnn3ccnc13)CC2` [Example 4.228, (5′S,7a′R)-5′-(3,5-difluorophenyl)-1-(imidazo[2,1-f] [1,2,4]triazin-4-yl)tetrahydro-3′H-spiro[piperidine-4,2′-pyrrolo[2,1-b] [1,3]oxazol]-3′-one], the EC50 amounted to 78.9 nM.
On to `O=C(c1ccoc1)N1CCC2(CC1)O[C@@H]1CC[C@@H](c3cc(F)cc(F)c3)N1C2=O` [Example 5.36, (5′S,7a′R)-5′-(3,5-difluoro-phenyl)-1-(furan-3-carbon-yl)tetrahydro-3′H-spiro [piperidine-4,2′-pyrrolo-[2,1-b]oxazol]-3′-one], for which the EC50 is less than 25 nM.

For the origin of these results see US12180226B2, “Spirotricycle RIPK1 inhibitors and methods of uses thereof” (Merck Sharp & Dohme LLC, priority 2021, dated 2024).
